Results as given in patent US20120156704A1, “IN VITRO METHOD FOR DETECTING GP91PHOX AS A MARKER OF OXIDATIVE STRESS” (BIOS INTERNATIONAL S.R.L., priority 2009, published 2012).

What was measured:
[1] = test system: polymorphonuclear leukocytes (PMN); test: sgp91phox in supernatant of PMN by ELISA; format: cell-based, human; settings: PMA 10 μM; unstimulated 1.53±0.66
Protocol: Polymorphonuclear leukocytes (PMN) were isolated from freshly taken EDTA-blood from healthy volunteers (n=5, healthy subjects) by dextran enhanced sedimentation of red blood cells, Ficoll-Histopaque density centrifugation, lysis of remaining erythrocytes with distilled water and washing of cells with Hank's balanced salt solution (HBSS) in the absence of any divalent cations. Finally, the cell pellet was suspended in 1 ml of HBSS and stimulated with or without 10 μM of phorbol 12-myristate 13-acetate (PMA). To evaluate sgp91phox in PMN the supernatant was analyzed by ELISA method as above reported.
(§1) To evaluate the source of sgp91phox we isolated platelets, PMN and lymphocytes/monocytes from the same blood sample.

[2] = test system: hypercholesterolemic patients; settings: group B, diet + atorvastatin 10 mg/day, end of 30 days, p<0.001
Protocol: The study was carrier out in 30 consecutive patients (16 male and 14 female subjects) suffering from hypercholesterolemia, defined as LDL cholesterol levels above 200 mg/dl, 52±4 years of age.
During this phase of the study the patients were subjected to a low-fat diet containing average quantities of macronutrients that corresponded to a 7% energy coming from fats and 200 mg/day of cholesterol coming from diet, according to ATPIII guidelines.
Whole blood anticoagulated samples were from fasting patients (5 ml) in between 8.00 and 9.00 in the morning. The samples were then kept for 1 hour at 37° C. and centrifuged at 3000×g for 10 minutes to obtain sera. The supernatant thus obtained was kept frozen at −80° C. until used for the assays. […]
Briefly, a 10 ml aliquot of urine was extracted on a C-18 SPE column and the recovery was verified by addition of a radioactive tracer (tritiated PGF2α-III). […] The concentration of PGF2α-III was corrected for the recovery and creatinine excretion, and was expressed as picogram per milligram (pg/ml) of creatinine. […]
The samples thus obtained were stored at −20° C. overnight and then analyzed by SDS-PAGE and immunoblot.

platelet gp91phox = test: gp91phox expression on platelets by flow cytometry in the clinical study; format: in vivo, human; settings: after 30 days of treatment
Protocol: To evaluate gp91^phox expression on platelets, 50 μl of stabilized whole blood (see above) were incubated for 30 minutes with 5 μl of monoclonal antibody against gp91^phox (20 μg/ml; Santa Cruz), and 5 μl of PE-conjugated monoclonal antibody against CD61 (Coulter) (20 μg/ml), respectively, as described in Martino F. et al., PEDIATRICS (2008), supra. The samples incubated with the monoclonal antibody against gp91^phox were then incubated with a secondary IgG FITC-conjugated antibody against mouse. After incubation, 1 ml of 1× PBS was added to proceed with the cytofluorimetric analysis.
Isotypic controls were carried out by preparing a sample with a non-specific anti-mouse IgG-FITC e IgG1-PE with the same ratio f/p for FITC e PE. The adequate concentration of the monoclonal antibodies used was determined in preliminary tests (not shown).
All the samples were analyzed within 15 minutes from dilution. FITC fluorescence was detected with an Epics XL-MCL cytometer (Coulter, Milan Italy) at 525 nm, while PE fluorescence was detected at 575 nm. All the parameters were grouped with a 4-decade logarithmic amplification.
Spectral overlap was balanced by fluorescence compensation, as defined in preliminary tests. […] Platelets and platelet-platelet aggregates were identified by logical gating according to their CD61 phycoerythrin fluorescence and forward scatter characteristics. […]

sgp91phox = sgp91phox in sera of the clinical study by the ELISA assay of the invention; format: in vivo, human; settings: group B
Protocol: The samples tested were sera from the same sampling of the clinical study of Example 2, stored frozen at −80° C. up to the use.
The proprietary primary policlonal antibody against SEQ ID NO 1 and the primary monoclonal antibody against SEQ ID NO 3 (i.e., the proprietary antibody of the present invention from the hybridoma deposited at ATCC on Jun. 10, 2010 under No. SD-6311) already described above were diluted 1:100 with coating buffer (catalog. C3041, Sigma Chemicals) and 100 μl of this primary antibody solution were placed in 96-well ELISA plates for 1 h at room temperature (RT). After incubation the content of each well in the plates was removed and the wells were washed three times with washing buffer (Tris-buffered saline 50 mM, pH 8.0, Tween 20; catalog. T9039, Sigma Chemicals).
Subsequently, 200 μl of saturation buffer containing 1% BSA (catalog T6789, Sigma Chemicals) were added to the wells for 30 minutes at RT. The wells were then washed three times with the washing buffer, as above.
100 μl of standard or of sample to be assayed were then added to the wells and the incubation was carried out for 1 h at RT.
A standard curve was obtained by using increasing concentrations of the gp91^phox peptide of SEQ ID NO 1 or of the peptide of SEQ ID NO 3 (i.e., 64 pg/ml; 32 pg/ml; 16 pg/ml; 8 pg/ml) obtained by diluting the peptides in buffer, and incubated for 1 h see FIG. 4, panel A and panel B.
100 μl of a secondary goat-anti-rabbit IgG-HRP antibody (Santa Cruz, catalog sc2004) or of a secondary goat anti-mouse IgG-HRP antibody (Santa Cruz, catalog sc 2060) diluted 1:100 with coating buffer, were then incubated at RT for 1 h.
After aspirating the contents of the wells and washing three times with washing buffer, as described above, 100 μl of substrate (Santa Cruz, catalog SK-4400) were added to the wells for 30 minutes at RT. At the end of the incubation, 100 μl of H2SO4 2M (Merck, catalog 30148297) were also added to the wells. Subsequently, reading of the developed color was carried out with a spectrophotometer at 450 nm.
The final concentration of the samples were calculated by using the proper standard curve obtained with a gp91^phox peptide, as described above.

platelet NADPH oxidase = test: Platelet NADPH oxidase activation: ROS production in AA-stimulated platelets by cytofluorimetry; format: cell-based, human; settings: AA 0.5 mM
Protocol: To obtain platelet rich plasma (PRP) from HC and HS patients, samples were centrifuged 15 min at 180 g. To avoid leukocyte contamination, only the top 75% of the PRP was collected. Platelet pellet was suspended in HEPES buffer, pH 7.4 (2×10^8 platelets/mL, unless otherwise noted) and processed differently according to the type of experiment to be carried out.
To test NADPH oxidase activity, the levels of ROS in platelets from 5 human healthy subjects were measured by cytofluorimetry in the presence and in the absence of specific NADPH oxidase inhibitors, such as apocynin and the gp91^phox blocking peptide gp91ds-tat. Platelets were incubated with 2′,7′-dichlorofluorescin diacetate […] for 15 minutes at 37° C. After incubation, 100 μl of the sample was treated with arachidonic acid (AA, 0.5 mM) in presence or less of apocynin (100 μM) or the gp91^phox specific blocking peptide (gp91ds-tat, 50 μM). Then 10 μl of each sample was diluted with 1 ml of PBS and analyzed by flow cytometry. Basal OFR level in resting platelets was expressed as mean fluorescence (MF), AA-induced OFR production was expressed as stimulation index (S.I.=mean level of fluorescence in AA-stimulated platelet/mean level of fluorescence in unstimulated platelets) (Pignatelli P et al. Blood (1998) 95:484-490.

platelets = test: sgp91phox in supernatant of platelets by ELISA with the monoclonal antibody of the invention; format: cell-based, human
lymphocytes/monocytes = test: sgp91phox in supernatant of lymphocytes/monocytes by ELISA; format: cell-based, human; settings: LPS 100 ng/ml; unstimulated 1.11±0.55
Protocol: Blood samples were collected in heparinized tubes (10 IU/ml). Lynphocytes/Monocyte were isolated after centrifugation of the blood from healthy volunteers (n=5, healthy subjects) with a polysucrose-sodium diatrizoate solution, 1.077 g/ml density and 280 mOsm osmolarity (Lymphoprep; Nycomed, Oslo, Norway) at 800 g at 20° C. The Lynphocytes/Monocyte cell layer was collected and the cells were thus washed two times in a solution of cold phosphate-buffered saline (pH 7.2), supplemented with 1% fetal calf serum and 2 mmol/l EDTA (Sigma-Aldrich, Milano, Italy). The cell suspension was stimulated with or without lipopolysaccharide (100 ng/ml) (LPS), sgp91 content in the supernatant was evaluated by ELISA method as above reported.
as §1

[3] = 30 days atorvastatin vs baseline

Molecule: CCCCCCCCCCCCCC(=O)O[C@@H]1[C@@H](C)[C@@]2(O)[C@@H](C=C(CO)C[C@]3(O)C(=O)C(C)=C[C@@H]23)[C@@H]2C(C)(C)[C@]12OC(C)=O [PMA, phorbol 12-myristate 13-acetate]
- sgp91phox in supernatant of stimulated PMN [1]: 11.85 ± 3.23 pg/mL

Molecule: CC(C)c1c(C(=O)Nc2ccccc2)c(-c2ccccc2)c(-c2ccc(F)cc2)n1CC[C@@H](O)C[C@@H](O)CC(=O)O [atorvastatin]
- serum total cholesterol ([2]; from 276±46 at baseline): 208 ± 38 mg/dL
- urinary isoprostanes levels ([2]; from 383±51 at baseline): 241±58 pg/mg of creatinine
- variation in platelet gp91phox after treatment (platelet gp91phox): no significant variation
- reduction in sgp91phox, ELISA with monoclonal antibody (SD-6311) (sgp91phox; [3]): −25%
- reduction in sgp91phox, ELISA with polyclonal antibody (sgp91phox; [3]): −33%
- sgp91phox serum level, ELISA with monoclonal antibody (SD-6311) (sgp91phox; end of 30 days atorvastatin, from 32.5±4.6 at baseline, p<0.001): 23.5 ± 6.5 pg/mL
- sgp91phox serum level, ELISA with polyclonal antibody (sgp91phox; end of 30 days atorvastatin, from 36.6±5.6 at baseline, p<0.001): 24.5 ± 7.7 pg/mL

Molecule: CCCCC/C=C\C/C=C\C/C=C\C/C=C\CCCC(=O)O [AA, arachidonic acid]
- ROS production after platelet activation (platelet NADPH oxidase): increase
- sgp91phox in supernatant of stimulated platelets (platelets; AA-stimulated, unstimulated 1.18±0.84): 7.05 ± 2.04 pg/mL

Molecule: COc1cc(C(C)=O)ccc1O [apocynin]
- effect on AA-induced ROS production in platelets (platelet NADPH oxidase; apocynin 100 μM, gp91ds-tat 50 μM): inhibited
- levels of sgp91phox shed in the cell medium of AA-activated platelets (platelets; specific NADPH oxidase inhibitors, ELISA of supernatant): decrease

Molecule: lipopolysaccharide [LPS]
- sgp91phox in supernatant of stimulated lymphocytes/monocytes (lymphocytes/monocytes): 7.5 ± 2.64 pg/mL
